Results published in patent publication US20050261194A1, “Use of thymulin-like peptides for making pain-relieving medicines” (priority 2001, published 2005).

Tested on: rats
Assay: SNI (spared nerve injury) mononeuropathy: allodynia and hyperpathy
Assay type: in vivo, rat
Protocol: Adult male Sprague-Dawley rats (250-300 g) were used for these trials. Over the period of the experiments, the rats were placed under standard conditions (4 to 5 individuals to a cage, 12 hour day/night cycle, 22.2° C.), with free access to water and food. The necessary surgical procedures were done under deep anesthesia using ketamine (Ketalar®, 40-50 mg/kg, intraperitoneal injection), preceded by pre-anesthesia using chlorpromazine (8 mg/kg, idem) and atropine (0.05 mg/kg, idem).
Mononeuropathy was induced in different groups of rats (n=6 rats in each group) according to the CCI (chronic constriction injury, chronic nerve constriction, Bennet G. J. et Xie Y. K., 1988, A peripheral mononeuropathy in rat that produces disorders of pain sensation like those seen in man, Pain, 33:87-107) or according to the SNI (spared nerve injury, spared nerve of the enervated paw, Decosterd I. et Woolf C. J., 2000, Spared nerve injury: an animal model of persistent peripheral neuropathic pain, Pain, 87:149-158). The sciatic nerve was exposed after dissection of the posterior hip and by incision through the skin and the fatty layer covering the popliteal fossa. For the CCI model, four loose ligatures (chromed catgut 4.0) were placed on the proximal side of the sciatic trifurcation. For the SNI model, the external popliteal sciatic nerve and the internal popliteal sciatic nerve were isolated, tightly ligatured and sectioned, while the sural nerve innervating the lateral aspect of the paw was left intact.
The rats were placed in individual compartments of one cage, whose floor was made of a metal grating allowing access to the heel pad and to the lateral aspect of the paw with wires.
For mechanical allodynia, the plantar surface of the hind paws (lateral surface for the SNI model and the median plantar surface for the CCI) was contacted with the von Frey wires (VFF 4.31 and 5.07, Stoelting Co., USA), which corresponded to the forces of 2.041 and 11.749 g (18.5 and 106.7 mN), respectively. […] The number of paw retractions induced by 10 trials was established for each rat on each hind paw prior to (baseline) and after induction of the mono-neuropathy. In normal rats, the low caliber wires (VFF 4.31) and higher caliber (VFF 5.07) induced an average 1.3±0.2 and 2.7±0.3 responses/10 trials, respectively.
The method described by Choi et al. (1994, Behavioral signs of ongoing pain and cold allodynia in a rat model of neuropathic pain, Pain, 59:369-376) was used for evaluation of cold allodynia. It consists of applying several drops (approximately 50 μl) of an acetone solution on the paw and measuring the duration of the retraction reaction. One half second and 20 seconds are the values chosen arbitrarily for the minimum and maximum threshold, respectively.
The duration (D) of retraction of the paw (RP) in response to a nociceptive ray of radiant heat oriented towards the plantar surface was established in the normal rat. […] the DRP after induction of the mononeuropathy was considered to be an indication of hyperalgesia. Each rat underwent two RP tests per session a minimum of every five minutes.
The neuropathic manifestations were at maximum seven to ten days after induction of the neuropathy. The effects of the injections of TAP were tested during this period, which corresponds to the peak of the neuropathy.
During the experiments done on rats suffering from neuropathy, allodynia and hyperpathy were evaluated in each group of animals with reference to the baseline condition established prior to induction of mononeuropathy. For example, the average of the number of paw withdrawal induced by each VFF was calculated for all of the rats of each group and the variation of this mean has been determined after treatment with TAP at different time periods after the injection. The same method has been followed for allodynia in the code and the hypertrophy relative to heat.

[1] = SNI, meloxican 5 mg/kg i.p., morphine 4 mg/kg i.p., at peak of activity 45-60 minutes after injection, FIG. 10

Substance: Glu-Ala-lys-Ser-Gln-Gly-Gly-Ser-Asp (SQGGSD; N-terminal Glu-Ala-Lys; printed: Ser-Gln-Gly-Gly-Ser-Asp) [TAP]
- reversibility of the effects, time after injection (SNI, TAP 5 μg i.p.): three to four hours
- time of maximum effect on all of the neuropathic manifestations after injection (SNI, TAP 5 μg i.p.): 75 min
- dose giving maximal attenuation of the neuropathic manifestations (SNI, doses 1, 5 and 25 μg compared, FIG. 7): 5 μg/rat
- reduction of tactile allodynia compared with meloxican and morphine [1]: greater reduction
- reduction of thermal hyperalgesia compared with meloxican and morphine [1]: greater reduction
- effect on cold allodynia, SNI model (TAP 5 μg i.p., single injection): only moderately reduced
- effect on neuropathic manifestations, SNI model (TAP 5 μg in 100 μl i.p., FIG. 6): significant attenuation
